Patent US10941121B2 (AZIENDA OSPEDALIERA UNIVERSITARIA SENESE, priority 2015, dated 2021)
Like-named read-outs stand apart in the source and are kept apart here.

Key:
DDX3 Helicase [1] = molecular target: T1, DDX3 Helicase (Homo sapiens, UniProt O00571); conditions: for IC50: read-out: ID50 (μM) against DDX3 Helicase, n.a. = compound not active; for DDX3 helicase activity compared with EI01D: in words
DDX3 Helicase [2] = molecular target: T1, DDX3 Helicase; assay: biochemical
[3] = Cytotoxicity, MTT method in LUNET cells; assay type: cell-based; conditions: human; MMT method in LUNET cells; read-out: CC50 (μM) non-infected cells
Protocol: Toxicity (CC50) was analysed in the Lunet/HuH7 cells by the addition of 10 μL of MTT (3-(4,5-dimethylthiazol-2-yl)-2,5-diphenyltetrazolium bromide) per well. After 4 h of incubation at 37° C. in a humidified atmosphere with 5% CO2, the amount of formazan produced was quantified spectrophotometrically at 550/620 nm (C. Pannecouque et al, Nature protocol 2008; 3 (3): 427-434). […] These assays were done in duplicate.

[4] = tested on: Hepatitis C Virus (HCV) replicon system; assay: HCV replicon system, luciferase method in LucUbiNeo-ET cells; conditions: for EC50: Hepatitis C virus, 48 h, read-out: EC50 (μM) HCV replicon system
[5] = Parallel Artificial Membrane Permeability Assay (PAMPA); assay type: in vitro ADME; conditions: for Papp at 5 h, 0.5 mM: PAMPA, phosphatidylcholine in dodecane, pH 7.4, 5 h, room temperature, read-out: PAMPA Papp *10^−6 (cm/s) GI; for PAMPA membrane retention (RM %): value in brackets in the PAMPA cell
Protocol: Parallel Artificial Membrane Permeability Assay (PAMPA). Donor solution (0.5 mM) was prepared by diluting 1 mM dimethylsulfoxide (DMSO) compound stock solution using phosphate buffer (pH 7.4, 0.025 M). Filters were coated with 5 μL of a 1% (w/v) dodecane solution of phosphatidylcholine prepared from CHCl3 solution 10% w/v, for intestinal permeability. Donor solution (150 μL) was added to each well of the filter plate. To each well of the acceptor plate were added […] (50% DMSO in phosphate buffer). All compounds were tested in three different plates on different days. The sandwich was incubated for 5 h at room temperature under gentle shaking. After the incubation time, the plates were separated, and samples were taken from both receiver and donor sides and analyzed using LC with UV detection at 280 nm.
LC analysis were performed with a Varian Prostar HPLC system (Varian Analytical Instruments, USA) equipped with a binary pump with a manual injection valve and model Prostar 325 UV-VIS Detector.
Permeability (Papp) for PAMPA was calculated according to the following equation, obtained from Wohnsland and Faller and Sugano et al. equation with some modification in order to obtain permeability values in cm s^−1,
where VA is the volume in the acceptor well, VD is the volume in the donor well (cm^3), A is the “effective area” of the membrane (cm^2), t is the incubation time (s) and r the ratio between drug concentration in the acceptor and equilibrium concentration of the drug in the total volume (VD+VA). Drug concentration is estimated by using the peak area integration.
Membrane retentions (%) were calculated according to the following equation: […]
where r is the ratio between drug concentration in the acceptor and equilibrium concentration, D, A, and Eq represented drug concentration in the donor, acceptor and equilibrium solution, respectively.

Water Solubility Assay = assay type: physicochemical; conditions: thermodynamic from solid
Protocol: Water Solubility Assay. Each solid compound (1 mg) was added to 1 mL of water. The samples were shaked in a shaker bath at room temperature for 24-36 h. The suspensions were filtered through a 0.45 μm nylon filter (Acrodisc), and the solubilized compound determined by LC-MS-MS assay. For each compound the determination was performed in triplicate.
For the quantification was used an LC-MS system consisted of a Varian apparatus (Varian Inc) including a vacuum solvent degassing unit, two pumps (212-LC), a Triple Quadrupole MSD (Mod. 320-LC) mass spectrometer with ES interface and Varian MS Workstation System Control Vers. 6.9 software. […] The flow rate was 0.2 mL min^−1 and injection volume was 5 μL. The instrument operated in positive mode and parameters were: detector 1850 V, drying gas pressure 25.0 psi, desolvation temperature 300.0° C., nebulizing gas 40.0 psi, needle 5000 V and shield 600 V. Nitrogen was used as nebulizer gas and drying gas. Collision induced dissociation was performed using Argon as the collision gas at a pressure of 1.8 mTorr in the collision cell.

[6] = experimental aqueous solubility, read-out: LogS (converted)
[7] = room temperature, 24-36 h, read-out: Aq. Solub.

T1 sequence (O00571 whole entry): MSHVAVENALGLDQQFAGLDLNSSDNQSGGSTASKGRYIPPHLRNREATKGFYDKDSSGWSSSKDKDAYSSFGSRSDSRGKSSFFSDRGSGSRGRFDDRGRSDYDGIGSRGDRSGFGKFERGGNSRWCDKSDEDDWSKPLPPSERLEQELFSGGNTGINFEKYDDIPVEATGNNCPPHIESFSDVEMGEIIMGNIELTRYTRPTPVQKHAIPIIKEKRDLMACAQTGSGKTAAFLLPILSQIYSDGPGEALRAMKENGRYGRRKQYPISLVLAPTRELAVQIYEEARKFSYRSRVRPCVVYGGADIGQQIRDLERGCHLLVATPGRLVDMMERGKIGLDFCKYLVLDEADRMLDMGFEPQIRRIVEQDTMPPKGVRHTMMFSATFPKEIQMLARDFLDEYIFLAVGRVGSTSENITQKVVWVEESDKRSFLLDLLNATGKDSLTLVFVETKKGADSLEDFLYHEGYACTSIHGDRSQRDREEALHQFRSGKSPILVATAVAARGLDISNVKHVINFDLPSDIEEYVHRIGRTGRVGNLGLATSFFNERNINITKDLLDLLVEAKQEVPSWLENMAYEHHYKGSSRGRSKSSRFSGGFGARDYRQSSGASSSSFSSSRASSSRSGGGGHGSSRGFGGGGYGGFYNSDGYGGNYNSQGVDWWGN

Question: Which IC50 (DDX3 Helicase [1]) does the source give for Cc1ccccc1NC(=O)Nc1ccc(-n2cc(CCCN(C)C)nn2)cc1 [Compound 35i, 1-(4-(4-(dimethylaminopropyl)-1H-1,2,3-triazol-1-yl)phenyl)-3-o-tolylurea] here?
Answer: 2.9 µM

Question: With CCCCc1cn(-c2ccc(S(=O)(=O)Nc3ccccc3O)cc2)nn1 [Compound 65a, 4-(4-butyl-1H-1,2,3-triazol-1-yl)-N-(2-hydroxyphenyl)benzenesulfonamide] as the compound, how does the IC50 (DDX3 Helicase [2]) read?
Answer: 15.5 µM

Question: Which CC50 [3] does the source give for Cc1ccccc1NC(=O)Nc1ccc(-n2cc(CCO)nn2)cc1 [Compound 35b, 1-(4-(4-(hydroxyethyl)-1H-1,2,3-triazol-1-yl)phenyl)-3-o-tolylurea] here?
Answer: > 370 µM

Question: And the IC50 (DDX3 Helicase [2])?
Answer: 20 µM

Question: And the EC50 [4]?
Answer: 28.9 µM

Question: Which IC50 (DDX3 Helicase [2]) does the source give for CCCCn1nnc(-c2ccc(NC(=O)Nc3cnccc3C)cc2)n1 [Compound 52, 1-(4-(2-butyl-2H-tetrazol-5-yl)phenyl)-3-(4-methylpyridin-3-yl)urea] here?
Answer: 2.49 µM

Question: Which CC50 [3] does the source give for Cc1cn(-c2ccc(NC(=O)Nc3ccccc3C)cc2)nn1 [Compound 8f, 1-(4-(4-methyl-1H-1,2,3-triazol-1-yl)phenyl)-3-o-tolylurea] here?
Answer: 36 µM

Question: What about the EC50 [4] of the same compound?
Answer: > 36 µM

Question: Which CC50 [3] does the source give for CCc1cn(-c2ccc(NC(=O)Nc3ccccc3C)cc2)nn1 [Compound 8g, 1-(4-(4-ethyl-1H-1,2,3-triazol-1-yl)phenyl)-3-o-tolylurea] here?
Answer: 295 µM

Question: What about the IC50 (DDX3 Helicase [2]) of the same compound?
Answer: 0.98 µM

Question: What about the EC50 [4] of the same compound?
Answer: 36 µM

Question: Which results are given for Cc1nc(Cl)c2ccccc2c1NC(=O)Nc1ccc(-n2cc(CCC(C)C)nn2)cc1 [Compound 55g, 1-(1-chloro-3-methylisoquinolin-4-yl)-3-(4-(4-isopentyl-1H-1,2,3-triazol-1-yl)phenyl)urea]?
Answer: CC50 [3]: > 278 µM; IC50 (DDX3 Helicase [2]): 10 µM; EC50 [4]: 12.4 µM

Question: For Cc1ccncc1NC(=O)Nc1ccc(-n2cc(CCC(C)C)nn2)cc1 [Compound 15b, 1-(4-(4-isopentyl-1H-1,2,3-triazol-1-yl)phenyl)-3-(4-methylpyridin-3-yl)urea], which CC50 [3] is on record?
Answer: 180 µM

Question: What about the IC50 (DDX3 Helicase [2]) of the same compound?
Answer: 2 µM

Question: And the EC50 [4]?
Answer: 3.65 µM

Question: For Cc1ccccc1NC(=O)Nc1ccc(-n2cc(CCOC(=O)CC(C)C)nn2)cc1 [Compound 37, 2-(1-(4-(3-(o-tolyl)ureido)phenyl)-1H-1,2,3-triazol-4-yl)ethyl 3-methylbutanoate], which CC50 [3] is on record?
Answer: 180 µM

Question: And the IC50 (DDX3 Helicase [1])?
Answer: 1.3 µM

Question: What about the EC50 [4] of the same compound?
Answer: 11.7 µM

Question: For O=C(Nc1ccc(-n2cc(CCOC(=O)/C=C/c3ccc4c(c3)OCO4)nn2)cc1)Nc1ccccc1C(F)(F)F [Compound 39, 2-(1-(4-(3-(2-(trifluoromethyl)phenyl)ureido)phenyl)-1H-1,2,3-triazol-4-yl)ethyl 3-(benzo[d][1,3]dioxol-5-yl)acrylate], which CC50 [3] is on record?
Answer: 28.6 µM

Question: What about the IC50 (DDX3 Helicase [1]) of the same compound?
Answer: 5.1 µM

Question: What about the EC50 [4] of the same compound?
Answer: 4.3 µM

Question: For Cc1ccccc1NC(=O)Nc1ccc(-n2cc(CO)nn2)cc1 [Compound 35a, 1-(4-(4-(hydroxymethyl)-1H-1,2,3-triazol-1-yl)phenyl)-3-o-tolylurea], which IC50 (DDX3 Helicase [2]) is on record?
Answer: 17.5 µM

Question: For Cc1ccccc1NC(=O)Nc1ccc(-n2cc(CN(C)Cc3ccccc3)nn2)cc1 [Compound 8c, 1-(4-(4-methanamine,N-[(phenyl)methyl]-N-methyl-1H-1,2,3-triazol-1yl)phenyl)-3-o-tolylurea], which IC50 (DDX3 Helicase [2]) is on record?
Answer: 22.8 µM

Question: With CCCC(C)C(F)c1cn(-c2ccc(NC(=O)Nc3ccccc3C(F)(F)F)cc2)nn1 (centres unmarked) [Compound 42c, 1-(4-(4-(1-fluoro-2-methylpentyl)-1H-1,2,3-triazol-1-yl)phenyl)-3-(2-(trifluoromethyl)phenyl) urea] as the compound, how does the IC50 (DDX3 Helicase [2]) read?
Answer: 0.3 µM

Question: For CCCCc1cn(-c2ccc(NC(=O)Nc3cnccc3C)cc2)nn1 [Compound 15a, 1-(4-(4-butyl-1H-1,2,3-triazol-1-yl)phenyl)-3-(4-methylpyridin-3-yl)urea], which IC50 (DDX3 Helicase [2]) is on record?
Answer: 1.47 µM

Question: Which results are given for COCCc1cn(-c2ccc(NC(=O)Nc3ccccc3C)cc2)nn1 [Compound 20f, 1-(4-(4-(2-methoxyethyl)-1H-1,2,3-triazol-1-yl)phenyl)-3-o-tolylurea]?
Answer: CC50 [3]: 44.4 µM; Papp at 5 h, 0.5 mM [5]: 0.69 ×10⁻⁶ cm/s; PAMPA membrane retention (RM %) [5]: 7.4%; solubility (Water Solubility Assay; [6]): 50.1 µM; solubility (Water Solubility Assay; [7]): 26300 ng/mL; IC50 (DDX3 Helicase [1]): 1 µM; EC50 [4]: 28.8 µM

Question: For Cc1c(Cl)cccc1NC(=O)Nc1ccc(-n2cc(CCC(C)C)nn2)cc1 [Compound 21b, 1-(3-chloro-2-methylphenyl)-3-(4-(4-isopentyl-1H-1,2,3-triazol-1-yl)phenyl)urea], which CC50 [3] is on record?
Answer: 42.1 µM

Question: What about the Papp at 5 h, 0.5 mM [5] of the same compound?
Answer: 2.51 ×10⁻⁶ cm/s

Question: What about the “PAMPA membrane retention (RM %)” value [5] of the same compound?
Answer: 59.1%

Question: What about the solubility (Water Solubility Assay; [6]) of the same compound?
Answer: < 0.00251 µM

Question: What about the solubility (Water Solubility Assay; [7]) of the same compound?
Answer: < 1 ng/mL

Question: What about the EC50 [4] of the same compound?
Answer: 6.11 µM

Question: Which results are given for CC(C)CC(=O)OCCc1cn(-c2ccc(NC(=O)Nc3ccccc3C(F)(F)F)cc2)nn1 [Compound 38, 2-(1-(4-(3-(2-(trifluoromethyl)phenyl)ureido)phenyl)-1H-1,2,3-triazol-4-yl)ethyl 3-methylbutanoate]?
Answer: CC50 [3]: 23.2 µM; IC50 (DDX3 Helicase [1]): 0.4 µM; EC50 [4]: 0.5 µM

Question: Which results are given for Cc1ccccc1NC(=O)Nc1ccc(-n2cc(C(F)(F)C(F)(F)C(F)(F)C(F)(F)F)nn2)cc1 [Compound 20c]?
Answer: CC50 [3]: > 125 µM; IC50 (DDX3 Helicase [1]): 6 µM; EC50 [4]: > 125 µM

Question: Which CC50 [3] does the source give for CC(C)CCc1cn(-c2ccc(NC(=O)Nc3ccccc3C(F)(F)F)cc2)nn1 [Compound 22b, 1-(4-(4-isopentyl-1H-1,2,3-triazol-1-yl)phenyl)-3-(2-(trifluoromethyl)phenyl)urea] here?
Answer: 46.8 µM

Question: And the Papp at 5 h, 0.5 mM [5]?
Answer: 7.41 ×10⁻⁶ cm/s

Question: And the “PAMPA membrane retention (RM %)” value [5]?
Answer: 24.8%

Question: And the solubility (Water Solubility Assay; [6])?
Answer: < 0.00251 µM

Question: What about the solubility (Water Solubility Assay; [7]) of the same compound?
Answer: 2 ng/mL

Question: And the “DDX3 helicase activity compared with EI01D” value (DDX3 Helicase [1])?
Answer: approximately ten-fold more active

Question: And the IC50 (DDX3 Helicase [2])?
Answer: 0.17 µM

Question: And the “activity against HCV, in words” value [4]?
Answer: best activity

Question: And the EC50 [4]?
Answer: 0.67 µM

Question: Which IC50 (DDX3 Helicase [2]) does the source give for CCCCc1cn(-c2cccc(S(=O)(=O)Nc3ccc(OC)cc3)c2)nn1 [Compound 64b, 3-(4-butyl-1H-1,2,3-triazol-1-yl)-N-(4-methoxyphenyl)benzenesulfonamide] here?
Answer: 52.2 µM

Question: Which CC50 [3] does the source give for Cc1ccccc1NC(=O)Nc1ccc(-n2cc(CCN3CCOCC3)nn2)cc1 [Compound 35f, 1-(4-(4-(morpholinoethyl)-1H-1,2,3-triazol-1-yl)phenyl)-3-o-tolylurea] here?
Answer: > 125 µM

Question: And the EC50 [4]?
Answer: > 125 µM

Question: For Cc1ccccc1NC(=O)Nc1ccc(-n2cc(CN3CCOCC3)nn2)cc1 [Compound 35e, 1-(4-(4-(morpholinomethyl)-1H-1,2,3-triazol-1-yl)phenyl)-3-o-tolylurea], which CC50 [3] is on record?
Answer: > 125 µM

Question: What about the EC50 [4] of the same compound?
Answer: > 125 µM

Question: For CCOCn1nnc(-c2ccc(NC(=O)Nc3ccccc3C)cc2)n1 [Compound 50, 1-(4-(2-(ethoxymethyl)-2H-tetrazol-5-yl)phenyl)-3-(o-tolyl)urea], which CC50 [3] is on record?
Answer: 245 µM

Question: And the IC50 (DDX3 Helicase [2])?
Answer: 14 µM

Question: And the EC50 [4]?
Answer: 22.8 µM

Question: Which CC50 [3] does the source give for Cc1ccccc1NC(=O)Nc1ccc(-n2cc(C(C)(C)C)nn2)cc1 [Compound 8b, 1-(4-(4-tert-butyl-1H-1,2,3-triazol-1-yl)phenyl)-3-o-tolylurea] here?
Answer: 100 µM

Question: What about the IC50 (DDX3 Helicase [2]) of the same compound?
Answer: 3.36 µM

Question: What about the EC50 [4] of the same compound?
Answer: 5.73 µM

Question: Which results are given for CC(C)CCc1cn(-c2ccc(NC(=O)Nc3ccccc3F)cc2)nn1 [Compound 55a, 1-(2-fluorophenyl)-3-(4-(4-isopentyl-1H-1,2,3-triazol-1-yl)phenyl)urea]?
Answer: CC50 [3]: > 340 µM; DDX3 helicase activity compared with EI01D (DDX3 Helicase [1]): approximately ten-fold more active; IC50 (DDX3 Helicase [1]): 0.12 µM; activity against HCV, in words [4]: best activity; EC50 [4]: 0.4 µM
